Consider 5 compounds from article PMC12169104, “Towards the development of supramolecular self-associating amphiphiles as antibiofilm agents against Pseudomonas aeruginosa and Candida albicans biofilms” (Journal of Materials Chemistry. B, 2025).

A short description of series [1]: Dynamic light scattering (DLS) of SSA aggregates. The class given is physicochemical. Conditions: for Peak 1 (nm) / Peak 2 (nm) / Peak 3 (nm): DLS average intensity particle size distribution; for Peak 1 (nm) / Peak 2 (nm) / Peak 3 (nm) / PDI: EtOH:H2O 1:19; for dH (nm): DLS intensity distribution peak maxima, H2O:EtOH 19:1, 2.78 mM, 298 K, after annealing. An excerpt:
DLS studies: All vials used for preparing the samples were clean and dry. All solvents used were filtered to remove any particulates that may interfere with the results obtained. Samples of differing concentrations were obtained through serial dilution of a concentrated solution. All samples underwent an annealing process, in which they were heated to 313 K before being allowed to cool to 298 K to allow each sample to reach a thermodynamic minimum. […]

Series [2] in a line: 1H NMR DOSY, hydrodynamic diameter of SSA anion. The class given is physicochemical. Conditions: DMSO-d6/0.5 % H2O, 298 K. The text has this: (§1) The self-associative properties of SSAs 1–5, and co-formulations a–j, were studied using previously published methodologies, the results of which are summarised in Table 1.[44,45] Initially, we quantified the strength of homogeneous SSA anion self-association events, to confirm the effect of the squaramide – (thio)urea substitution. […] Complimentary ^1H NMR DOSY experiments conducted in DMSO-d6 0.5% H2O solutions at 298 K confirmed the SSA anion and cation components to diffuse at different rates, providing supporting evidence towards the lack of any strong ion pairing interactions between the SSA anionic and cationic components under these experimental conditions. […] The formation of SSA anionic dimers has also been shown in the solid state through single crystal X-ray diffraction experiments.[42,43,46] […] Here the SSA anion dimer is stabilised through the formation of four intermolecular squaramide-anion hydrogen bonds. Proton NMR spectroscopy dilution study data, obtained from a DMSO-d6 0.5% H2O solution, were then fitted to both the EK (the equal K single component linear self-associative or dimerization model) and CoEK (the cooperative equal K single component linear self-associative or dimerization model) self-association models using Bindfit v0.5.[47,48] […] The dimerization constants calculated confirm that substitution of the sulfonate ion (1 and 3) for the carboxylate ion (2) increase Kdim by approximately 50-fold. However, substituting the thiourea (2) for the squaramide (5) functionality increases the Kdim by a further 70-fold. Therefore, confirming our initial hypothesis, that incorporating the squaramide residue within the SSA anion structure would increase the strength of SSA anion self-association events.

Series [3] in a line: Membrane permeability and adhesion assay (1H CPMG NMR; PF and MAF). Conditions: SSA anion(s), 200 μM, 298 K; for MAF (membrane adhesion factor): error ±0.05 unless stated, MAF < 1 suggests adhesion; for PF (membrane permeation factor): error ±0.1 unless stated, PF > 1 suggests permeable. The text has this:
Finally, in line with our previous work, we moved to characterise the membrane adhesion and permeation events of 1–5 and co-formulations a–j with PE : PG 1 : 1 synthetic phospholipid vesicles.[53] This vesicle composition was prioritised for further analysis as this composition acts as a model for an AMR resistant strain of the ESKAPE pathogen P. aeruginosa,[54,55] categorised as high priority by the WHO.[33] As summarised in Table 4, membrane permeation (PF) and membrane adhesion factors (MAF) for the SSA anionic components were calculated through the use of ^1H CPMG NMR spectroscopy experiments, using vesicles produced by extrusion through a 1000 nm polycarbonate membrane.
Here the lower the MAF, the stronger the adhesion of the molecule to the surface of the phospholipid membrane. […] A PF value of 1 or above provides evidence of SSA permeation. The greater this value above 1, the greater the membrane permeation potential of a compound. […]
Membrane permeability and adhesion assay, determining membrane adhesion factors (MAF) and permeation factors (PF): Lipid vesicles of DOPE and PG, in a 1:1 ratio by weight were prepared as described in ‘preparation of vesicles’ with one alteration. Here vesicles were extruded 21 times through a 1000 nm polycarbonate membrane. NMR samples were prepared containing: SSA ( 200 µM), 95% HEPES buffer (HEPES (10 mM), NaCl (10 mM)) and 5% D 2O, and sodium trimethylsilylpropanesulfonate - DSS (1 µM). In order to calculate the PF and MAF the paramagnetic relaxation enhancement agent (PRE), gadodiamide (1 mM) was added to the NMR mixture. Where lipid vesicles were present in the NMR mixture, vesi cles were added at a concentration of 0.1 mg/mL.
All 1H CPMG NMR spectra were collected with a spin -lock time of 150 mS on a Bruker Avance III spectrometer equipped with a cold probe at a proton frequency of 600 MHz and recorded at 298 K.
Peak intensities were measured using MestReNova (Mestrelab Research). The MAF and PF were determined using previously published method. 3 For individual SSAs, MAF and PF were calculated using all aromatic CH resonances. For SSA co -formulations an average MAF and PF were calculated using all aromatic CH resonances. For individual components of the SSA co -formulations, the resonances for the different SSA anions were treated independently of one another.

Series [4] can be described thus: Membrane fluidity fluorescence polarization (DPH) assay. Particulars: SSA 1.5 mM, HEPES buffer pH 7.4, 298 K, n = 3, error = SD. An excerpt: Next, we sought to understand the effects of 1, 2, 4 and 5 and a, c, d, f, g, j on synthetic vesicle phospholipid membrane fluidity using a fluorescence polarization (FP) assay.[52] Here, the fluorescent reporter dye 1,6-diphenyl-1,3,5-hexatriene (DPH) is incorporated into the vesicles phospholipid bilayer. As membrane fluidity is increased, the DPH reporter dye moves more freely within the phospholipid bilayer environment, resulting in a decreased FP value. However, should the membrane become more rigid, the movement of the dye is decreased and the FP value increases. As 3 is intrinsically fluorescent and overlaps with the fluorescence excitation/emission properties of the DPH, this SSA and co-formulations incorporating this compound were not included. […]
Preparation of vesicles: All lipids were purchased as powder stocks from Avanti Polar Lipids. Lipid vesicles were prepared according to standard procedures. Each phospholipid (~ 20 mg) was dissolved in chloroform: methanol 3:1 (~ 10 mL) and the solvent was removed under reduced pressure. The thin film of dried lipid was further dried in vacuo overnight. Lipid films were resuspended in the desired buffer and subjected to 10 freeze-thaw cycles in liquid nitrogen and extruded 19 times through a 200 nm polycarbonate membrane. […]
Preparation of DPH fluorescent labelled vesicles: Lipid films were resuspended in buffer (150 mM KCl, 10 mM HEPES, pH 7.4, 2 mM EGTA) and subjected to 10 freeze-thaw cycles in liquid nitrogen and extruded 20 times through a 200 nm polycarbonate membrane. For fluorescent labelling, the desired vesicles were pre-incubated with DPH (10 µM) at 60 °C for 1 hour.
Membrane fluidity assay: Black bottom 96-well plates were prepared by serially diluting desired SSA in a EtOH: H2O 1:19 solution across the plate, the appropriate DPH labelled vesicles (100 µL, 60 µM) were added to each well to give a total well volume of 200 µL. FP measurements were taken at 25 °C using a 355 nm filter for excitation and a […] for emission. The DPH labelled vesicles were set to a FP value of 100 mP. Data were acquired in endpoint mode. All experiments were repeated in triplicate to ensure experimental reproducibility.
A general note: Fluorescence polarisation rises when a labelled molecule tumbles more slowly, as on binding a larger partner.

Series [5] is described as follows: 1H NMR dilution study, dimerization constant (EK model, Bindfit v0.5). The series is classed as physicochemical. Particulars: DMSO-d6/0.5% H2O, SSA anion dimerization.
From the text: as §1

The mark [6] stands for this setting: polydispersity index of DLS dH, 2.78 mM.
Where [7] appears, read: PE:PG 1:1 vesicles with DPH (10 μM).
The mark [8] stands for this setting: PE:PG 3:1 vesicles with DPH (10 μM).

Each structure is given as a SMILES string. Where “and” joins values, the source holds several entries; their conditions need not be identical. Equal entries are not always repeated. Marks after values point to notes of the source that are not given here.

In the case of `O=S(=O)(O)CCCNC(=S)Nc1ccc(C(F)(F)F)cc1` [SSA 1], in series [1] (0.28 mM), the “Peak 1 (nm)” value stood at 0.23 nm. The “Peak 2 (nm)” value in series [1] (0.28 mM) is listed as 100.61 nm; in series [1] (2.78 mM), 184.36 nm. Further, the “Peak 3 (nm)” value in series [1] (0.28 mM) stood at 747.99 nm. Besides, in series [1], the “dH (nm)” value is 184.36 nm and 184 nm. Further, the PDI in series [1] (DLS, 0.28 mM) came to 0.0602; in series [1] (setting [6]), 0.0315. Further, the “dH (nm) of SSA anion, 1H NMR DOSY” value in series [2] was found to be 1.50 nm. For the same compound, the “MAF (membrane adhesion factor)” value in series [3] is on record as 0.94. Besides, in series [3], the “PF (membrane permeation factor)” value is given as 1.01. Further, the results for the “Average FP values” in series [4] (setting [7]), in series [4] (setting [8]) and in series [4] (PG vesicles with DPH (10 μM)) were 50 ± 1, −9 ± 3 and 29 ± 1, respectively. For the same compound, the “Kdim” value in series [5] is 3 M⁻¹ and 2.6 M⁻¹.
Consider `O=C(O)CNC(=S)Nc1ccc(C(F)(F)F)cc1` [SSA 2], for which the “Peak 2 (nm)” value was 139.08 nm in series [1] (0.28 mM) and 142.73 nm in series [1] (2.78 mM). Besides, the “dH (nm)” value in series [1] was 142 nm and 143 nm. Also, the PDI in series [1] (DLS, 0.28 mM) came out at 0.0160; in series [1] (setting [6]) it was 0.0350. Further, the “dH (nm) of SSA anion, 1H NMR DOSY” value in series [2] was 1.42 nm. Besides, the “MAF (membrane adhesion factor)” value in series [3] was 0.88. Besides, the “PF (membrane permeation factor)” value in series [3] is listed as 0.85. For the same compound, the “Average FP values” in series [4] (setting [7]) was −1 ± 1; in series [4] (setting [8]) it was −40 ± 0; in series [4] (PG vesicles with DPH (10 μM)), 11 ± 8. Further, in series [5], the “Kdim” value worked out at 105 M⁻¹.
As for `Cc1ccc2nc(-c3ccc(NC(=O)NCS(=O)(=O)O)cc3)sc2c1` [SSA 3], in series [1] (0.28 mM), the “Peak 1 (nm)” value was 0.43 nm, the “Peak 2 (nm)” value is 56.01 nm and the “Peak 3 (nm)” value was 462.06 nm. Further, in series [1] (2.78 mM), the “Peak 1 (nm)” value stood at 51.65 nm and the “Peak 2 (nm)” value is given as 672.27 nm. Further, in series [1], the “dH (nm)” value is 672.27 nm and 672 nm. In addition, in series [1] (DLS, 0.28 mM), the PDI is given as 0.0863. This compound yielded a PDI in series [1] (setting [6]) of 0.0658. Further, the “dH (nm) of SSA anion, 1H NMR DOSY” value in series [2] is listed as 1.64 nm. Besides, in series [3], the “MAF (membrane adhesion factor)” value was determined as 0.00 and the “PF (membrane permeation factor)” value amounted to 0.00. Further, in series [5], the “Kdim” value is 3 M⁻¹ and 2.7 M⁻¹.
As to `O=c1c(NCCCS(=O)(=O)O)c(Nc2ccc(C(F)(F)F)cc2)c1=O` [SSA 4], the “Peak 2 (nm)” value in series [1] (2.78 mM) is 162.46 nm. Further, the “dH (nm)” value in series [1] was 162.46 nm and 162 nm. The PDI in series [1] (DLS, 0.28 mM) is reported as 0.0452; in series [1] (setting [6]), 0.0388. The “dH (nm) of SSA anion, 1H NMR DOSY” value in series [2] is 1.65 nm. Also, in series [3], the “MAF (membrane adhesion factor)” value is recorded as 0.38. Besides, the “PF (membrane permeation factor)” value in series [3] was 1.48 ^a. Also, the “Average FP values” in series [4] (setting [7]) was found to be 151 ± 5; in series [4] (setting [8]), 73 ± 14; in series [4] (PG vesicles with DPH (10 μM)), 150 ± 8.
For the compound `O=C(O)CNc1c(Nc2ccc(C(F)(F)F)cc2)c(=O)c1=O` [SSA 5], the “Peak 2 (nm)” value stood at 125.90 nm in series [1] (0.28 mM) and 160.53 nm in series [1] (2.78 mM). Moreover, the “Peak 3 (nm)” value in series [1] (0.28 mM) is 747.97 nm. The “dH (nm)” value in series [1] is reported as 174 nm. The PDI in series [1] (DLS, 0.28 mM) is reported as 0.0547; in series [1] (setting [6]), 0.0614. The “dH (nm) of SSA anion, 1H NMR DOSY” value in series [2] was 1.61 nm. Further, the “MAF (membrane adhesion factor)” value in series [3] was found to be 0.38. The “PF (membrane permeation factor)” value in series [3] was 0.67. Further, the “Average FP values” in series [4] (setting [7]) turned out to be 146 ± 4; in series [4] (setting [8]), 106 ± 7; in series [4] (PG vesicles with DPH (10 μM)), 152 ± 6. In series [5], the “Kdim” value was 7636 M⁻¹.
